In US11999716B2, “WDR5 inhibitors and modulators” (priority 2018, dated 2024):

System: MV4:11 human cancer cell lines
Experiment: Cellular viability / anti-proliferative activity, CellTiter-Glo, 5 day protocol
Type: cell-based
Conditions: Homo sapiens, MV4-11, 120 h, MV4:11 cells; 5 day incubation; CellTiter-Glo; mean of minimum two replicates; read-out: GI50 on cellular proliferation of MV4:11 human cancer cell lines
How it was run: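 Compounds were tested over 22 two-fold dilutions starting at 30 μM in 0.3% DMSO, with 200 cells per well (7200 cells/mL). Viability was measured by CellTiter-Glo luminescence at day 5.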

| GI50 [nM] | SMILES |
| --- | --- |
| 333 | COc1cc(CN2CCc3c(cc(Cn4ccn(C)c4=N)cc3-c3ccc(C)nc3C)C2=O)cc(OC)c1 [Example 68, 2-(3,5-Dimethoxybenzyl)-5-(2,6-dimethylpyridin-3-yl)-7-((2-imino-3-methyl-2,3-dihydro-1H-imidazol-1-yl)methyl)-3,4-dihydroisoquinolin-1(2H)-one] |
| 77 | COc1cc(CN2CCc3c(cc(Cn4ccn(C)c4=N)cc3-c3cn(C)nc3C)C2=O)cc(OC)c1 [Example 70, 2-(3,5-Dimethoxybenzyl)-5-(1,3-dimethyl-1H-pyrazol-4-yl)-7-((2-imino-3-methyl-2,3-dihydro-1H-imidazol-1-yl)methyl)-3,4-dihydroisoquinolin-1(2H)-one] |
| < 50 | COc1ccnc([C@H](C)N2CCc3c(cc(Cn4ccn(C)c4=N)cc3-c3cn(C)nc3C(F)(F)F)C2=O)c1 [Example 71, (S)-7-((2-Imino-3-methyl-2,3-dihydro-1H-imidazol-1-yl)methyl)-2-(1-(4-methoxypyridin-2-yl)ethyl)-5-(1-methyl-3-(trifluoromethyl)-1H-pyrazol-4-yl)-3,4-dihydroisoquinolin-1(2H)-one] |
| < 50 | COc1ccnc([C@H](C)N2CCc3c(cc(Cn4ccn(C(F)F)c4=N)cc3-c3cn(C)nc3C(F)(F)F)C2=O)c1 [Example 72, (S)-7-((3-(Difluoromethyl)-2-imino-2,3-dihydro-1H-imidazol-1-yl)methyl)-2-(1-(4-methoxypyridin-2-yl)ethyl)-5-(1-methyl-3-(trifluoromethyl)-1H-pyrazol-4-yl)-3,4-dihydroisoquinolin-1(2H)-one] |
| > 938 | COc1cc(CN2CCc3c(OCC(F)(F)F)cc(Cn4ccn(C)c4=N)cc3C2=O)cc(OC)c1 [Example 73, 2-(3,5-Dimethoxybenzyl)-7-((2-imino-3-methyl-2,3-dihydro-1H-imidazol-1-yl)methyl)-5-(2,2,2-trifluoroethoxy)-3,4-dihydroisoquinolin-1(2H)-one] |
| > 938 | CCn1cc(-c2cc(Cn3ccn(C)c3=N)cc3c2CCN(Cc2cc(C)nn2C)C3=O)c(C(F)(F)F)n1 [Example 74] |
| > 938 | COc1cc(CN2CCc3c(OCC4CC4)cc(Cn4ccn(C)c4=N)cc3C2=O)cc(OC)c1 [Example 75, 5-(Cyclopropylmethoxy)-2-(3,5-dimethoxybenzyl)-7-((2-imino-3-methyl-2,3-dihydro-1H-imidazol-1-yl)methyl)-3,4-dihydroisoquinolin-1(2H)-one] |
| > 938 | COc1cc(CN2CCc3c(cc(Cn4ccn(C)c4=N)cc3-c3c(C)noc3C)C2=O)cc(OC)c1 [Example 76, 2-(3,5-Dimethoxybenzyl)-5-(3,5-dimethylisoxazol-4-yl)-7-((2-imino-3-methyl-2,3-dihydro-1H-imidazol-1-yl)methyl)-3,4-dihydroisoquinolin-1(2H)-one] |
| > 938 | CCn1cc(-c2cc(Cn3ccn(C)c3=N)cc3c2CCN(Cc2cn(C)nc2C)C3=O)c(C(F)(F)F)n1 [Example 77, 2-((1,3-Dimethyl-1H-pyrazol-4-yl)methyl)-5-(1-ethyl-3-(trifluoromethyl)-1H-pyrazol-4-yl)-7-((2-imino-3-methyl-2,3-dihydro-1H-imidazol-1-yl)methyl)-3,4-dihydroisoquinolin-1(2H)-one] |
| > 938 | Cc1cc([C@H](C)N2CCc3c(OCC4CC4)cc(Cn4ccn(C)c4=N)cc3C2=O)ccc1F [Example 78, (S)-5-(Cyclopropylmethoxy)-2-(1-(4-fluoro-3-methylphenyl)ethyl)-7-((2-imino-3-methyl-2,3-dihydro-1H-imidazol-1-yl)methyl)-3,4-dihydroisoquinolin-1(2H)-one] |
| < 50 | Cc1cc([C@H](C)N2CCc3c(cc(Cn4ccn(C)c4=N)cc3-c3cn(C)nc3C(F)(F)F)C2=O)ccc1F [Example 79, (S)-2-(1-(4-Fluoro-3-methylphenyl)ethyl)-7-((2-imino-3-methyl-2,3-dihydro-1H-imidazol-1-yl)methyl)-5-(1-methyl-3-(trifluoromethyl)-1H-pyrazol-4-yl)-3,4-dihydroisoquinolin-1(2H)-one] |
| < 50 | COc1cc(CN2CCc3c(cc(Cn4ccoc4=N)cc3-c3cccnc3C(F)(F)F)C2=O)cc(OC)c1 [Example 80, 2-(3,5-Dimethoxybenzyl)-7-((2-iminooxazol-3(2H)-yl)methyl)-5-(2-(trifluoromethyl)pyridin-3-yl)-3,4-dihydroisoquinolin-1(2H)-one] |
| 155 | COc1cc(CN2CCc3c(cc(Cn4ccoc4=N)cc3-c3ccc(F)cc3C)C2=O)cc(OC)c1 [Example 81, 2-(3,5-Dimethoxybenzyl)-5-(4-fluoro-2-methylphenyl)-7-((2-iminooxazol-3(2H)-yl)methyl)-3,4-dihydroisoquinolin-1(2H)-one] |
| 55 | COc1cc(CN2CCc3c(cc(CN4CCOC4=N)cc3-c3cccnc3C(F)(F)F)C2=O)cc(OC)c1 [Example 82, 2-(3,5-Dimethoxybenzyl)-7-((2-iminooxazolidin-3-yl)methyl)-5-(2-(trifluoromethyl)pyridin-3-yl)-3,4-dihydroisoquinolin-1(2H)-one] |
| < 50 | COc1ccnc(CN2CCc3c(cc(CN4CCOC4=N)cc3-c3cn(C)nc3C(F)(F)F)C2=O)c1 [Example 83, 7-((2-Iminooxazolidin-3-yl)methyl)-2-((4-methoxypyridin-2-yl)methyl)-5-(1-methyl-3-(trifluoromethyl)-1H-pyrazol-4-yl)-3,4-dihydroisoquinolin-1(2H)-one] |
| < 50 | COc1ccnc(CN2CCc3c(cc(Cn4ccoc4=N)cc3-c3cn(C)nc3C(F)(F)F)C2=O)c1 [Example 84, 7-((2-Iminooxazol-3(2H)-yl)methyl)-2-((4-methoxypyridin-2-yl)methyl)-5-(1-methyl-3-(trifluoromethyl)-1H-pyrazol-4-yl)-3,4-dihydroisoquinolin-1(2H)-one] |
| 57 | COc1ccnc(CN2CCc3c(cc(Cn4ccoc4=N)cc3-c3cn(C)nc3C)C2=O)c1 [Example 85, 5-(1,3-Dimethyl-1H-pyrazol-4-yl)-7-((2-iminooxazol-3(2H)-yl)methyl)-2-((4-methoxypyridin-2-yl)methyl)-3,4-dihydroisoquinolin-1(2H)-one] |
| 740 | CCn1cc(-c2cc(CN3CCOC3=N)cc3c2CCN(Cc2cc(OC)ccn2)C3=O)cn1 [Example 86, 5-(1-Ethyl-1H-pyrazol-4-yl)-7-((2-iminooxazolidin-3-yl)methyl)-2-((4-methoxypyridin-2-yl)methyl)-3,4-dihydroisoquinolin-1(2H)-one] |
| 837 | CCn1cc(-c2cc(Cn3ccoc3=N)cc3c2CCN(Cc2cc(OC)ccn2)C3=O)cn1 [Example 87, 5-(1-Ethyl-1H-pyrazol-4-yl)-7-((2-iminooxazol-3(2H)-yl)methyl)-2-((4-methoxypyridin-2-yl)methyl)-3,4-dihydroisoquinolin-1(2H)-one] |
| < 50 | Cc1ccnc(CN2CCc3c(cc(Cn4ccoc4=N)cc3-c3cn(C)nc3C(F)(F)F)C2=O)c1 [Example 88, 7-((2-Iminooxazol-3(2H)-yl)methyl)-5-(1-methyl-3-(trifluoromethyl)-1H-pyrazol-4-yl)-2-((4-methylpyridin-2-yl)methyl)-3,4-dihydroisoquinolin-1(2H)-one] |
| < 50 | CCn1cc(-c2cc(Cn3ccoc3=N)cc3c2CCN(Cc2cc(OC)ccn2)C3=O)c(C(F)(F)F)n1 [Example 89, 5-(1-Ethyl-3-(trifluoromethyl)-1H-pyrazol-4-yl)-7-((2-iminooxazol-3(2H)-yl)methyl)-2-((4-methoxypyridin-2-yl)methyl)-3,4-dihydroisoquinolin-1(2H)-one] |
| 209 | CCn1cc(-c2cc(Cn3ccoc3=N)cc3c2CCN(Cc2cc(OC)ccn2)C3=O)c(C)n1 [Example 90, 5-(1-Ethyl-3-methyl-1H-pyrazol-4-yl)-7-((2-iminooxazol-3(2H)-yl)methyl)-2-((4-methoxypyridin-2-yl)methyl)-3,4-dihydroisoquinolin-1(2H)-one] |
| < 50 | CCn1cc(-c2cc(Cn3ccoc3=N)cc3c2CCN([C@@H](C)c2cc(OC)ccn2)C3=O)c(C(F)(F)F)n1 [Example 91, (S)-5-(1-Ethyl-3-(trifluoromethyl)-1H-pyrazol-4-yl)-7-((2-iminooxazol-3(2H)-yl)methyl)-2-(1-(4-methoxypyridin-2-yl)ethyl)-3,4-dihydroisoquinolin-1(2H)-one] |
| < 50 | COc1ccnc([C@H](C)N2CCc3c(cc(Cn4ccoc4=N)cc3-c3cn(C)nc3C(F)(F)F)C2=O)c1 [Example 93, (S)-7-((2-Iminooxazol-3(2H)-yl)methyl)-2-(1-(4-methoxypyridin-2-yl)ethyl)-5-(1-methyl-3-(trifluoromethyl)-1H-pyrazol-4-yl)-3,4-dihydroisoquinolin-1(2H)-one] |
| 159 | CCn1cc(-c2cc(Cn3ccoc3=N)cc3c2CCN(Cc2cc(C)nn2C)C3=O)c(C(F)(F)F)n1 [Example 94, 2-((1,3-Dimethyl-1H-pyrazol-5-yl)methyl)-5-(1-ethyl-3-(trifluoromethyl)-1H-pyrazol-4-yl)-7-((2-iminooxazol-3(2H)-yl)methyl)-3,4-dihydroisoquinolin-1(2H)-one] |
| 197 | CCn1cc(-c2cc(CN3CCOC3=N)cc3c2CCN(Cc2cc(C)nn2C)C3=O)c(C(F)(F)F)n1 [Example 95, 2-((1,3-Dimethyl-1H-pyrazol-5-yl)methyl)-5-(1-ethyl-3-(trifluoromethyl)-1H-pyrazol-4-yl)-7-((2-iminooxazolidin-3-yl)methyl)-3,4-dihydroisoquinolin-1(2H)-one] |

| SMILES | GI50 [nM] |
| --- | --- |
| COc1cc(CN2CCc3c(OC4CCC4)cc(Cn4ccn(C)c4=N)cc3C2=O)cc(OC)c1 [Example 69, 5-Cyclobutoxy-2-(3,5-dimethoxybenzyl)-7-((2-imino-3-methyl-2,3-dihydro-1H-imidazol-1-yl)methyl)-3,4-dihydroisoquinolin-1(2H)-one] | 502 |
| COc1cc(CN2CCc3c(OC4CCC4)cc(Cn4ccoc4=N)cc3C2=O)cc(OC)c1 [Example 92, 5-Cyclobutoxy-2-(3,5-dimethoxybenzyl)-7-((2-iminooxazol-3(2H)-yl)methyl)-3,4-dihydroisoquinolin-1(2H)-one] | > 938 |
